From PubChem BioAssay (NCI) come the findings set out here.

Structures are written as SMILES. Several values for one entry are separate records, joined by “and”; a condition that tells them apart may be missing. Equal values may be shown once.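 Protocol summary: plate cells (96-well), add compound at 5 concentrations, incubate 48 h, interpolate endpoints linearly. GI50: concentration for 50% inhibition of growth. At the TGI there is no net growth.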

Test systems include ACHN renal; CAKI-1 renal; EKVX NSCLC; MDA-MB-231 breast; NCI-H23 lung; OVCAR-5 ovarian; PC-3 prostate; RPMI-8226 leukemia; SW-620 colon; UACC-257 melanoma.
What all share (experiment): inhibition of tumour cell growth, NCI panel, 48 h

With `C=C1C(=O)O[C@H]2C3OC3(C)CC/C=C(/C(=O)OC)[C@@H](OC(C)=O)[C@H](OC(=O)C3(C)OC3C)[C@H]12` (stereo not given in full), the GI50 was 2.07 µM and 434 nM and 0.944 µg/mL in the assay on ACHN renal; 206 nM and 1.12 µM and 0.579 µg/mL with CAKI-1 renal; 5.71 µM and 4.57 µM and 3.81 µg/mL in the assay on EKVX NSCLC; 1.23 µM in the assay on MDA-MB-231 breast; 1.93 µM and 2.68 µM in the assay on NCI-H23 lung; 2.6 µg/mL in the assay with OVCAR-5 ovarian. In addition, the GI50 is 2.99 µM in the assay on PC-3 prostate; 0.329 µg/mL in the assay with RPMI-8226 leukemia; 422 nM and 350 nM and 0.302 µg/mL in the assay with SW-620 colon; 1.42 µM and 0.434 µM in the assay with UACC-257 melanoma. The TGI in the assay with ACHN renal is 6.36 µM and 3.12 µM and 2.75 µg/mL; with CAKI-1 renal, 478 nM and 2.35 µM and 1.57 µg/mL; in the assay on EKVX NSCLC, 26.8 µM and 9.61 µg/mL; with MDA-MB-231 breast, 5.9 µM and 4.71 µM; in the assay on NCI-H23 lung, 7.27 µM and 6.54 µM; in the assay on OVCAR-5 ovarian, 8.82 µM and 4.66 µg/mL. In addition, the TGI was 5.16 µM and 11.7 µM in the assay with PC-3 prostate; 1.21 µM and 2.66 µM and 0.941 µg/mL with RPMI-8226 leukemia; 3.47 µM and 1.4 µM and 0.762 µg/mL with SW-620 colon; 2.96 µM and 1.33 µM with UACC-257 melanoma.

Take `COc1ccc2[nH]cc(Cc3c[nH]c4ccc(OC)cc34)c2c1`: the GI50 with ACHN renal is 20 µM; with CAKI-1 renal, 19.9 µM; in the assay with EKVX NSCLC it was 17.9 µM; with MDA-MB-231 breast, 4.65 µM; in the assay with NCI-H23 lung, 21.7 µM; in the assay on OVCAR-5 ovarian, 24.8 µM. In addition, the GI50 with PC-3 prostate was 19.3 µM; in the assay on RPMI-8226 leukemia, 20.8 µM; with SW-620 colon, 18.3 µM; with UACC-257 melanoma it was 32.4 µM. For the same compound, the TGI in the assay with ACHN renal came to 43.9 µM; with CAKI-1 renal, 44.4 µM; in the assay with EKVX NSCLC, 45.9 µM; in the assay with MDA-MB-231 breast, 19.4 µM; in the assay on NCI-H23 lung, 40.7 µM; in the assay with OVCAR-5 ovarian, 58 µM. Also, the TGI was 39.4 µM with PC-3 prostate, 40.3 µM in the assay with RPMI-8226 leukemia, 32.2 µM in the assay on SW-620 colon and 88.1 µM in the assay on UACC-257 melanoma.

As for `Oc1ccccc1/C=N\Nc1ccccc1`, the GI50 in the assay on ACHN renal was 2.84 µM; with CAKI-1 renal, 1.64 µM; with EKVX NSCLC, 12.9 µM; in the assay on MDA-MB-231 breast it was 0.553 µM; with NCI-H23 lung, 12 µM; in the assay on OVCAR-5 ovarian it was 8.75 µM. Also, the GI50 in the assay with PC-3 prostate is 9.32 µM; in the assay on RPMI-8226 leukemia it was 3.99 µM; in the assay with SW-620 colon it was 2.94 µM; in the assay on UACC-257 melanoma it was 31.1 µM. The TGI is 62.2 µM with ACHN renal; 21.4 µM with CAKI-1 renal; > 100 µM in the assay with EKVX NSCLC; 22.7 µM with MDA-MB-231 breast; 84.1 µM in the assay with NCI-H23 lung; 39.2 µM in the assay with OVCAR-5 ovarian. Also, the TGI was > 100 µM with PC-3 prostate, 56.8 µM in the assay with RPMI-8226 leukemia, > 100 µM in the assay on SW-620 colon and > 100 µM in the assay on UACC-257 melanoma.

Consider `N#Cc1ccc(O)c(C2=NCC(c3ccc(-c4ccccc4)cc3)O2)c1` (stereo not given), for which the GI50 is 0.418 µM in the assay on ACHN renal; 0.106 µM in the assay on CAKI-1 renal; 0.342 µM in the assay on EKVX NSCLC; 0.823 µM with MDA-MB-231 breast; 0.703 µM in the assay with NCI-H23 lung; 0.941 µM in the assay with OVCAR-5 ovarian. In addition, the GI50 with PC-3 prostate is 0.471 µM; with RPMI-8226 leukemia it was 0.416 µM; in the assay on SW-620 colon, 0.387 µM; in the assay on UACC-257 melanoma, 1.15 µM. The TGI in the assay on ACHN renal was found to be 12.4 µM; with CAKI-1 renal it was 13.1 µM; in the assay on EKVX NSCLC, 10.4 µM; in the assay on MDA-MB-231 breast, 18.5 µM; in the assay with NCI-H23 lung it was 17.2 µM; in the assay with OVCAR-5 ovarian it was 28.9 µM. Also, the TGI with PC-3 prostate is 22.8 µM; with RPMI-8226 leukemia it was > 100 µM; in the assay on SW-620 colon it was 31.2 µM; in the assay with UACC-257 melanoma, 7.96 µM.

With `CC1OC(OC2C(O)C(OCCc3ccc(O)c(O)c3)OC(CO)C2OC(=O)/C=C/c2ccc(O)c(O)c2)C(O)C(O)C1O` (stereo not given), the GI50 with ACHN renal was 18.9 µM; with CAKI-1 renal it was 40 µM; in the assay with EKVX NSCLC, 27.6 µM; in the assay with MDA-MB-231 breast, 16.3 µM; in the assay with NCI-H23 lung it was > 100 µM; with OVCAR-5 ovarian, 19.6 µM. Further, the GI50 in the assay on PC-3 prostate is > 100 µM; with RPMI-8226 leukemia, 42.4 µM; with SW-620 colon it was 28.7 µM; with UACC-257 melanoma, > 100 µM. The TGI is 37 µM in the assay on ACHN renal; > 100 µM in the assay on CAKI-1 renal; > 100 µM in the assay with EKVX NSCLC; 34.7 µM with MDA-MB-231 breast; > 100 µM in the assay on NCI-H23 lung; 39 µM with OVCAR-5 ovarian. In addition, the TGI in the assay on PC-3 prostate was > 100 µM; in the assay on RPMI-8226 leukemia, > 100 µM; with SW-620 colon it was 72 µM; with UACC-257 melanoma, > 100 µM.
